Experimental data taken from article PMC12892976, “Alkylation-based optimization of antifungal FPPS inhibitors yields a potent, broad-spectrum lipophilic zoledronate derivative” (mBio, 2025).
Values after ≈ are worked out from the molar mass of the structure shown. Where two headings read alike, the source gives them in different places.

Key:
[1] = system: Saccharomyces cerevisiae; assay: MIC/MFC broth microdilution (CLSI); type: cell-based; settings: Saccharomyces cerevisiae S288c
Method: (§1) Antifungal susceptibility was determined by broth microdilution according to the CLSI guidelines described in M27-Ed4 ([16]). […] MFC was determined by back-plating drug-treated cultures from MIC broths onto SDA plates. The MFC was defined as the lowest concentration from which no colonies could be cultured.

[2] = system: Candida albicans; assay: MIC/MFC broth microdilution (CLSI); type: cell-based; settings: Candida albicans SC5314
Method: as §1

[3] = system: Cryptococcus deuterogattii; assay: checkerboard drug interaction (FICI, MICc);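 as to all read-outs here: simplified diagonal checkerboard screen pairing antifungal drugs with FPPS inhibitors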; type: cell-based; settings: C. deuterogattii; for INH FD (MIC-MICc fold decrease): fold decrease of inhibitor MIC
Method: (§2) Drug interactions between antifungals and FPPS inhibitors were investigated using a simplified checkerboard diagonal screening method ([45]). […] FICIs were determined according to the Loewe additivity model ([17]).

[4] = system: Cryptococcus neoformans; assay: checkerboard drug interaction (FICI, MICc);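 as to all read-outs here: antifungal plus FPPS inhibitor pairs tested against Cryptococcus neoformans by simplified diagonal checkerboard screening, FICI computed under the Loewe additivity model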; type: cell-based; settings: C. neoformans; for INH FD (MIC-MICc fold decrease): fold decrease of inhibitor MIC
Method: as §2

[5] = system: Saccharomyces cerevisiae; assay: checkerboard drug interaction (FICI, MICc); type: cell-based; set-up: INH MICc / INH MICc (ITR:INH) / INH MICc (KET:INH) / INH MICc (FLC:INH): unit not given beside the values;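 also: simplified diagonal checkerboard screen pairing antifungals with FPPS inhibitors, FICI calculated under the Loewe additivity model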
[6] = system: Candida glabrata; assay: checkerboard drug interaction (FICI, MICc);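 as to all read-outs here: simplified diagonal checkerboard screen pairing antifungals with FPPS inhibitors, FICI calculated under the Loewe additivity model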; type: cell-based; settings: C. glabrata; for INH FD (MIC-MICc fold decrease): fold decrease of inhibitor MIC
Method: as §2

[7] = system: Candida albicans; assay: checkerboard drug interaction (FICI, MICc);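 as to all read-outs here: antifungal plus FPPS inhibitor combinations on Candida albicans tested by a simplified diagonal checkerboard screen, with FICI calculated under the Loewe additivity model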; type: cell-based; settings: C. albicans; for INH FD (MIC-MICc fold decrease): fold decrease of inhibitor MIC
Method: as §2

[8] = system: Aspergillus flavus; assay: checkerboard drug interaction (FICI, MICc);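 also: simplified diagonal checkerboard screen pairing azole antifungals with FPPS inhibitors, FICI calculated under the Loewe additivity model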; type: cell-based; set-up: INH MICc (KET:INH) / INH MICc (FLC:INH): unit not given beside the values; settings: A. flavus
[9] = system: Aspergillus fumigatus; assay: checkerboard drug interaction (FICI, MICc); type: cell-based;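 also: simplified diagonal checkerboard screen pairing antifungals with FPPS inhibitors against Aspergillus fumigatus, with FICI calculated under the Loewe additivity model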
Method: as §2

[10] = system: Trichophyton rubrum; assay: checkerboard drug interaction (FICI, MICc);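 also: simplified diagonal checkerboard screen pairing azole antifungals with FPPS inhibitors, FICI calculated under the Loewe additivity model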; type: cell-based; settings: T. rubrum
Method: as §2

[11] = system: HEK-293T cells; assay: MTT reduction cytotoxicity assay; type: cell-based; settings: Homo sapiens, HEK-293T, 72 h, MTT, 72 h
[12] = system: eight fungal species; assay: MIC/MFC summary across the eight fungal species of Table 1; type: cell-based
Method: The antifungal activity of these compounds was evaluated according to CLSI guidelines ([16]).

[13] = system: eight fungal species; assay: checkerboard interaction with azoles, summary across the eight species; type: cell-based; settings: geometric mean MIC in combination with azoles
Source text: Synergy between lipophilic FPPS inhibitors and azole antifungals was investigated by determining the fractional inhibitory concentration index (FICI) (Fig. 2; Table S1 Fig. S1) ([17]). […]. Derivatives PLA9 and 11, and PDA9, 11, and 12 antagonized azoles in C. albicans, C. neoformans, and C. deuterogattii, yet were largely synergistic in C. glabrata and S. cerevisiae. […].

[14] = system: Cryptococcus deuterogattii; assay: MIC/MFC broth microdilution (CLSI); settings: Cryptococcus deuterogattii;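 also: broth microdilution per CLSI M27-Ed4. MFC is the lowest concentration yielding no colonies when MIC broths are subcultured onto SDA plates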
Method: as §1

[15] = system: Cryptococcus neoformans; assay: MIC/MFC broth microdilution (CLSI); settings: Cryptococcus neoformans;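 also: susceptibility testing followed the CLSI M27-Ed4 broth microdilution document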
Method: as §1

[16] = system: Candida glabrata; assay: MIC/MFC broth microdilution (CLSI); settings: Nakaseomyces glabratus, CBS138;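 also: broth microdilution following CLSI M27-Ed4, MFC taken as the lowest drug level yielding no growth once MIC wells were subcultured on SDA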
Method: as §1

[17] = system: Aspergillus flavus; assay: MIC/MFC broth microdilution (CLSI); settings: ATCC204304
Method: as §1

[18] = system: Aspergillus fumigatus; assay: MIC/MFC broth microdilution (CLSI); settings: ATCC204305
Method: as §1

[19] = system: Trichophyton rubrum; assay: MIC/MFC broth microdilution (CLSI); settings: Trichophyton rubrum
Method: as §1

[20] = FLC:INH combination, MIC of the inhibitor in combination with FLC
[21] = FLC:INH combination, fold decrease of FLC MIC
[22] = ITR:INH combination, MIC of the inhibitor in combination with ITR
[23] = ITR:INH combination, fold decrease of ITR MIC
[24] = KET:INH combination, MIC of the inhibitor in combination with KET
[25] = KET:INH combination, fold decrease of KET MIC
[26] = Fractional Inhibitory Concentration Index, fluconazole + inhibitor
[27] = Fractional Inhibitory Concentration Index, itraconazole + inhibitor
[28] = Fractional Inhibitory Concentration Index, ketoconazole + inhibitor
[29] = MIC of the inhibitor in combination with fluconazole
[30] = MIC of the inhibitor in combination with itraconazole
[31] = MIC of the inhibitor in combination with ketoconazole
[32] = MIC-MICc fold decrease of fluconazole, negative = increase
[33] = MIC-MICc fold decrease of itraconazole, negative = increase
[34] = MIC-MICc fold decrease of ketoconazole, negative = increase
[35] = MIC-MICc fold decrease of the inhibitor, with fluconazole
[36] = MIC-MICc fold decrease of the inhibitor, with itraconazole
[37] = MIC-MICc fold decrease of the inhibitor, with ketoconazole

`CCCCCCCCCCCCN1CCC[C@H]1C(=O)N[C@H](CC(=O)O)C(=O)O` [PDA12] was tested, and the MFC [1] was over 128 µg/mL, the MIC [1] was over 128 µg/mL and the MFC [2] was over 128 µg/mL. The MIC [2] was over 128 µg/mL, the FICI ([3]; FLC:INH combination) was 2.5 and the “INH MICc” value [3, 20] was 128. For the same compound, the “FLC FD (MIC-MICc fold decrease)” value [3, 21] was -2, the “INH FD (MIC-MICc fold decrease)” value ([3]; FLC:INH combination) was 2 and the FICI ([3]; ITR:INH combination) was at least 4. The “INH MICc” value [3, 22] was 128, the “ITR FD (MIC-MICc fold decrease)” value [3, 23] was -4 and the “INH FD (MIC-MICc fold decrease)” value ([3]; ITR:INH combination) was 2. The FICI ([3]; KET:INH combination) was 0.5, the “INH MICc” value [3, 24] was 64 and the “KET FD (MIC-MICc fold decrease)” value [3, 25] was 4. The “INH FD (MIC-MICc fold decrease)” value ([3]; KET:INH combination) was 4, the FICI ([4]; FLC:INH combination) was at least 4 and the “INH MICc” value [4, 20] was 128. The “FLC FD (MIC-MICc fold decrease)” value [4, 21] was -4, the “INH FD (MIC-MICc fold decrease)” value ([4]; FLC:INH combination) was 2 and the FICI ([4]; ITR:INH combination) was 2.25. The “INH MICc” value [4, 22] was 64, the “ITR FD (MIC-MICc fold decrease)” value [4, 23] was -2 and the “INH FD (MIC-MICc fold decrease)” value ([4]; ITR:INH combination) was 4. For the same compound, the FICI ([4]; KET:INH combination) was at least 4, the “INH MICc” value [4, 24] was 128 and the “KET FD (MIC-MICc fold decrease)” value [4, 25] was -4. For the same compound, the “INH FD (MIC-MICc fold decrease)” value ([4]; KET:INH combination) was 2, the “FICI (FLC:INH)” value [5, 26] was 0.38 and the “FICI (ITR:INH)” value [5, 27] was 0.63. The “FICI (KET:INH)” value [5, 28] was 0.31, the “INH MICc (FLC:INH)” value [5, 29] was 64 and the “INH MICc (ITR:INH)” value [5, 30] was 32. The “INH MICc (KET:INH)” value [5, 31] was 16, the “FLC FD (FLC:INH)” value [5, 32] was 8 and the “ITR FD (ITR:INH)” value [5, 33] was 2. The “KET FD (KET:INH)” value [5, 34] was 4, the “INH FD (FLC:INH)” value [5, 35] was 4 and the “INH FD (ITR:INH)” value [5, 36] was 8. The “INH FD (KET:INH)” value [5, 37] was 16, the FICI ([6]; FLC:INH combination) was 0.75 and the “INH MICc” value [6, 20] was 8. For the same compound, the “FLC FD (MIC-MICc fold decrease)” value [6, 21] was 2, the “INH FD (MIC-MICc fold decrease)” value ([6]; FLC:INH combination) was 32 and the FICI ([6]; ITR:INH combination) was 0.31. The “INH MICc” value [6, 22] was 2, the “ITR FD (MIC-MICc fold decrease)” value [6, 23] was 4 and the “INH FD (MIC-MICc fold decrease)” value ([6]; ITR:INH combination) was 128. For the same compound, the FICI ([6]; KET:INH combination) was 0.31, the “INH MICc” value [6, 24] was 2 and the “KET FD (MIC-MICc fold decrease)” value [6, 25] was 4. For the same compound, the “INH FD (MIC-MICc fold decrease)” value ([6]; KET:INH combination) was 128, the FICI ([7]; FLC:INH combination) was 2.06 and the “INH MICc” value [7, 20] was 16. For the same compound, the “FLC FD (MIC-MICc fold decrease)” value [7, 21] was -2, the “INH FD (MIC-MICc fold decrease)” value ([7]; FLC:INH combination) was 16 and the FICI ([7]; ITR:INH combination) was at least 4. The “INH MICc” value [7, 22] was 64, the “ITR FD (MIC-MICc fold decrease)” value [7, 23] was under -4 and the “INH FD (MIC-MICc fold decrease)” value ([7]; ITR:INH combination) was 4. The FICI ([7]; KET:INH combination) was at least 4, the “INH MICc” value [7, 24] was 32 and the “KET FD (MIC-MICc fold decrease)” value [7, 25] was -4. The “INH FD (MIC-MICc fold decrease)” value ([7]; KET:INH combination) was 8, the “FICI (FLC:INH)” value [8, 26] was 2 and the “FICI (ITR:INH)” value [8, 27] was 1. The “FICI (KET:INH)” value [8, 28] was 1, the “INH MICc (FLC:INH)” value [8, 29] was 256 and the “INH MICc (ITR:INH)” value [8, 30] was 128. For the same compound, the “INH MICc (KET:INH)” value [8, 31] was 128, the “FLC FD (FLC:INH)” value [8, 32] was 1 and the “ITR FD (ITR:INH)” value [8, 33] was 2. The “KET FD (KET:INH)” value [8, 34] was 2, the “INH FD (FLC:INH)” value [8, 35] was 1 and the “INH FD (ITR:INH)” value [8, 36] was 2. The “INH FD (KET:INH)” value [8, 37] was 2, the “FICI (FLC:INH)” value [9, 26] was 2 and the “FICI (ITR:INH)” value [9, 27] was 0.51. For the same compound, the “FICI (KET:INH)” value [9, 28] was 1.5, the “INH MICc (FLC:INH)” value [9, 29] was 256 and the “INH MICc (ITR:INH)” value [9, 30] was 2. The “INH MICc (KET:INH)” value [9, 31] was 128, the “FLC FD (FLC:INH)” value [9, 32] was 1 and the “ITR FD (ITR:INH)” value [9, 33] was 2. For the same compound, the “KET FD (KET:INH)” value [9, 34] was 1, the “INH FD (FLC:INH)” value [9, 35] was 1 and the “INH FD (ITR:INH)” value [9, 36] was 128. For the same compound, the “INH FD (KET:INH)” value [9, 37] was 2, the “FICI (FLC:INH)” value [10, 26] was at least 4 and the “FICI (ITR:INH)” value [10, 27] was 3. The “FICI (KET:INH)” value [10, 28] was at least 4, the “INH MICc (FLC:INH)” value [10, 29] was 256 and the “INH MICc (ITR:INH)” value [10, 30] was 256. For the same compound, the “INH MICc (KET:INH)” value [10, 31] was 256, the “FLC FD (FLC:INH)” value [10, 32] was -2 and the “ITR FD (ITR:INH)” value [10, 33] was 1. For the same compound, the “KET FD (KET:INH)” value [10, 34] was -2, the “INH FD (FLC:INH)” value [10, 35] was -2 and the “INH FD (ITR:INH)” value [10, 36] was -2. The “INH FD (KET:INH)” value [10, 37] was -2, the IC50 ([11]; HEK-293T cells, read-out: IC50) was 168 µg/mL (≈ 421 µM) and the IC50 ([11]; read-out: HEK IC50) was 168 µg/mL (≈ 421 µM). The MFC ([12]; across eight species, read-out: Geometric mean MFC) was over 128 µg/mL, the MIC ([12]; geometric mean across eight species, read-out: GM fungal MIC) was 235 µg/mL (≈ 589 µM) and the MIC ([12]; read-out: Geometric mean MIC) was 235 µg/mL (≈ 589 µM). For the same compound, the “GM fungal MICc” value [13] was 52.3, the MFC [14] was over 128 µg/mL and the MIC [14] was over 128 µg/mL. It also gave an MFC [15] of over 128 µg/mL, an MIC [15] of over 128 µg/mL and an MFC [16] of over 128 µg/mL. It also gave an MIC [16] of over 128 µg/mL, an MFC [17] of over 128 µg/mL and an MIC [17] of over 128 µg/mL. It also gave an MFC [18] of over 128 µg/mL, an MIC [18] of over 128 µg/mL and an MFC [19] of over 128 µg/mL. It also gave an MIC [19] of 128 µg/mL (≈ 321 µM).
